Legend:
[1] = target: T1, human recombinant histamine H1 receptor (Homo sapiens, UniProt P35367); assay: Histamine H1 radioligand binding ([3H]Pyrilamine); settings: percent inhibition of specific binding; screened at 1 μM; read-out: Inhibition of ligand binding, Hist. H1
T1 construct: expressed in transfected cells; host or cells: CHO cells
Outline: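 Receptor expressed in CHO cells, assayed in 50 mM Tris-HCl pH 7.4 with 2 mM MgCl2, 100 mM NaCl, 250 mM sucrose. Compounds tested at 1 μM in 1% DMSO; non-specific binding set with 1 μM pyrilamine. Filter-bound radioactivity counted; values are percent inhibition of specific binding.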

[2] = target: T2, human recombinant adrenergic α2B receptor (Homo sapiens, UniProt P18089); assay: Adrenergic α2B radioligand binding ([3H]Rauwolscine); design: Inhibition of ligand binding, Adren. alpha2B: concentration or dose not given beside the values; settings: percent inhibition of specific binding
T2 construct: expressed in transfected cells; host or cells: CHO-K1 cells
T2 sequence (P18089 1-450): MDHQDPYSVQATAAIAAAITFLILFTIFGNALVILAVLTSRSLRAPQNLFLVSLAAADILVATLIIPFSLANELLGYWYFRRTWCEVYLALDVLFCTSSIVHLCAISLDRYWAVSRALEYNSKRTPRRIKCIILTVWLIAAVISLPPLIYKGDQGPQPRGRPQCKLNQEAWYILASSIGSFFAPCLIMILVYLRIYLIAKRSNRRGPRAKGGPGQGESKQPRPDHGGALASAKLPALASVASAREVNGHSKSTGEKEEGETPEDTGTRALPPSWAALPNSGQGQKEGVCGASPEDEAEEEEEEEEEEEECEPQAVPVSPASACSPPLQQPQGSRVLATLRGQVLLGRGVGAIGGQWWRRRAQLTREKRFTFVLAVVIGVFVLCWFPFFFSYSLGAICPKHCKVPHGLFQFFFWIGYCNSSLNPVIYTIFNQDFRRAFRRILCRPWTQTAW
Outline: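 Membranes from CHO-K1 cells expressing the receptor, in 50 mM Tris-HCl pH 7.4 with 12.5 mM MgCl2, 1 mM EDTA, 0.2% BSA, incubated with compounds and 2.5 nM [3H]Rauwolscine for 60 minutes at 25 °C.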

[3] = target: T3, human recombinant serotonin (5-Hydroxytryptamine) 5-HT6 receptor (Homo sapiens, UniProt P50406); assay: Serotonin 5-HT6 radioligand binding ([3H]LSD); design: Inhibition of ligand binding, Ser. 5-HT6: concentration or dose not given beside the values; settings: percent inhibition of specific binding
T3 construct: expressed in transfected cells; host or cells: human HeLa cells
T3 sequence (P50406 whole entry): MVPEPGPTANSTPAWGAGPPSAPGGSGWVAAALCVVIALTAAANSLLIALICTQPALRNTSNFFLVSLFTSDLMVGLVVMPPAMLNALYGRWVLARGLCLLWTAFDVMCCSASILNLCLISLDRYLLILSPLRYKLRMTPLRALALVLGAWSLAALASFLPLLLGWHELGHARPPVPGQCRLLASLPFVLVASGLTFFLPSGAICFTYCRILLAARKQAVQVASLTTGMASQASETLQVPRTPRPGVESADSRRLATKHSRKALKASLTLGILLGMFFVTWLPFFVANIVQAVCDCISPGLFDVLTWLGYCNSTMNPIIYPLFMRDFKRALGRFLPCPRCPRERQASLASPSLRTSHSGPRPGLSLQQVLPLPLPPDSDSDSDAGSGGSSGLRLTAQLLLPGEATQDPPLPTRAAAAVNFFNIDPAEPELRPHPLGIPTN
Excerpt: Receptor proteins were filtered and washed, the filters were then counted to determine [3H]LSD specifically bound. […] Biochemical assay results are presented as the percent inhibition of specific binding in Table 6.

[4] = target: T4, human recombinant serotonin (5-Hydroxytryptamine) 5-HT2A receptor (Homo sapiens, UniProt P28223); assay: Serotonin 5-HT2A radioligand binding ([3H]Ketanserin); settings: percent inhibition of specific binding
T4 construct: expressed in transfected cells; host or cells: CHO-K1 cells
T4 sequence (P28223 whole entry): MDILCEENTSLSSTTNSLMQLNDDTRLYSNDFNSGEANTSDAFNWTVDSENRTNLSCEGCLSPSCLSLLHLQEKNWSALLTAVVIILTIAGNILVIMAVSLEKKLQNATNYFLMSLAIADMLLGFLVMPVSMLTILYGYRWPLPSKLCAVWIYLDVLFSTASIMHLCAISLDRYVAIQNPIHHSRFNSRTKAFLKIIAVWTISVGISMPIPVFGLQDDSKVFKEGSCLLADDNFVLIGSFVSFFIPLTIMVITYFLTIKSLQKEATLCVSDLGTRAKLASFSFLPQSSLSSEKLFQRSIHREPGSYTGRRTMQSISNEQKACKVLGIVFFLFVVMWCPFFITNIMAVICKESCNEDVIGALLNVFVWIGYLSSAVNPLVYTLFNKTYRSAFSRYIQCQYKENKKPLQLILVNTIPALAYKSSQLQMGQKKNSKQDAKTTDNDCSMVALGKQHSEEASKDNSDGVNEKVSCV
Experimental: (§1) Compounds of the invention were incubated with 0.5 nM [^3H]Ketanserin for 60 minutes at 25° C. Non-specific binding was estimated in the presence of 1 μM Mianserin. Receptor proteins were filtered and washed, the filters were then counted to determine [^3H]Ketanserin specifically bound. […] Biochemical assay results are presented as the percent inhibition of specific binding in Table 6.

[5] = target: T5, human recombinant dopamine D2L receptor (Homo sapiens, UniProt P14416); assay: Dopamine D2L radioligand binding ([3H]Spiperone); settings: percent inhibition of specific binding
T5 construct: expressed in transfected cells; host or cells: CHO cells
T5 sequence (P14416 whole entry): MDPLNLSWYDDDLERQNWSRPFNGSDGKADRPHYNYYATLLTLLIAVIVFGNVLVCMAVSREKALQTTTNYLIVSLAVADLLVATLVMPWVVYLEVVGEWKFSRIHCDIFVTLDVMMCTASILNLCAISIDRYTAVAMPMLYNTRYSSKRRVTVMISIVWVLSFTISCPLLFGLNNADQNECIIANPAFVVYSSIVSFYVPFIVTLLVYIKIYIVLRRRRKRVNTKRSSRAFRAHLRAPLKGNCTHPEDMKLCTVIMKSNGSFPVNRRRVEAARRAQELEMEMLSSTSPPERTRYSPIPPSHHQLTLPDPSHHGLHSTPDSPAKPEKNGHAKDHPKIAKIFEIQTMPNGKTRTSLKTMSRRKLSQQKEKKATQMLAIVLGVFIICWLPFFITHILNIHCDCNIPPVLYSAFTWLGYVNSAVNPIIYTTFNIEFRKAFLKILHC
Experimental: Non-specific binding was estimated in the presence of 10 μM Haloperidol. Receptor proteins were filtered and washed, the filters were then counted to determine [^3H]Spiperone specifically bound. […] Biochemical assay results are presented as the percent inhibition of specific binding in Table 6.

[6] = target: T6, human recombinant adrenergic α1D receptor (Homo sapiens, UniProt P25100); assay: Adrenergic α1D radioligand binding ([3H]Prozosin); design: Inhibition of ligand binding, Adren. alpha1D: concentration or dose not given beside the values; settings: percent inhibition of specific binding
T6 construct: expressed in transfected cells; host or cells: HEK-293 cells
T6 sequence (P25100 1-572): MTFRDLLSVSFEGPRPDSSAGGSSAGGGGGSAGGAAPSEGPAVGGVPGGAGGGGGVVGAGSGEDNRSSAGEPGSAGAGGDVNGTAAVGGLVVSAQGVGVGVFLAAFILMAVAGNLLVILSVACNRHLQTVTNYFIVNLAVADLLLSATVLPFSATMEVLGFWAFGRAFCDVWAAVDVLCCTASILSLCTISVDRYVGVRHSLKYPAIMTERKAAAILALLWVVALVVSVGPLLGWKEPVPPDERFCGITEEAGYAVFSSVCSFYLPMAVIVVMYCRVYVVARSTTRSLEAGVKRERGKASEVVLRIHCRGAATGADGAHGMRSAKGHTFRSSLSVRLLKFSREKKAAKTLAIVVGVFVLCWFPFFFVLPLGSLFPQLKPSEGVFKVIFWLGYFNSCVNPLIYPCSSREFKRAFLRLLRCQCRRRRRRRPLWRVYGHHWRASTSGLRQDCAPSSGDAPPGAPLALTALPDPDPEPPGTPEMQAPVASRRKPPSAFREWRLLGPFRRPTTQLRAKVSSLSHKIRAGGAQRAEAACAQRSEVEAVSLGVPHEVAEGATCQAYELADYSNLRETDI
Experimental: as §1, with “of” for “of the”, “0.6” for “0.5”, “[^3H]Prozosin” for “[^3H]Ketanserin”, “10” for “1”, “phentolamine.” for “Mianserin.”

T1 sequence (P35367 whole entry): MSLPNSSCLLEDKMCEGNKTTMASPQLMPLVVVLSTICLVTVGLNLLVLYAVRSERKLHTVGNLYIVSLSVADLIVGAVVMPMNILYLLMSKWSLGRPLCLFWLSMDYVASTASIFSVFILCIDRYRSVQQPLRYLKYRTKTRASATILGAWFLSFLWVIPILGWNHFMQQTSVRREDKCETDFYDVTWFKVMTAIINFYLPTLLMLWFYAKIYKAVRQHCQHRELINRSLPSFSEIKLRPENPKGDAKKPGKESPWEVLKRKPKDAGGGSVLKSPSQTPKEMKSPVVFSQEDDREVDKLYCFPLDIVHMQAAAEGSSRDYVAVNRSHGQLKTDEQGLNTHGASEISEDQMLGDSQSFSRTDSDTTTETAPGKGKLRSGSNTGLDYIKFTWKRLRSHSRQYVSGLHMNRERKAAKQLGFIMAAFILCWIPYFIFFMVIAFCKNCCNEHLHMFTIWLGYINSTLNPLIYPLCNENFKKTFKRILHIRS

For `CCCc1ccc(CCn2c3c(c4cc(Cl)ccc42)CN(C)CC3)cn1` [Compound 476, 8-chloro-2,3,4,5-tetrahydro-2-methyl-5-(2-(6-propylpyridin-3-yl)ethyl)-1H-pyrido[4,3-b]indole], the inhibition at 1 µM [1] was 98%, the “Inhibition of ligand binding, Adren. alpha2B” value [2] was 97% and the “Inhibition of ligand binding, Ser. 5-HT6” value [3] was 87%. The “Inhibition of ligand binding, Ser. 5-HT2A” value [4] was 100%, the “Inhibition of ligand binding, Dop. D2L” value [5] was 30% and the “Inhibition of ligand binding, Adren. alpha1D” value [6] was 95%.

Reference: patent publication US9096591B2, “Tetracyclic compounds” (Medivation Technologies, Inc., priority 2007, dated 2015)
